Results as given in PMC8248988, “A signal capture and proofreading mechanism for the KDEL-receptor explains selectivity and dynamic range in ER retrieval” (eLife, 2021).

Molecular target: T1, human KDELR1 D50N/N54K/E117Q/W120A (Homo sapiens, UniProt P24390, D50N/E117Q/N54K/W120A)
T1 construct: expressed in transfected cells; host or cells: COS-7
Experiment: ER retrieval assay, KDELR1 D50N/N54K/E117Q/W120A-GFP
Type: cell-based
Conditions: COS-7 cells
Excerpt: To create KDELR1-GFP and KDELR2-GFP, the reading frames for Homo sapiens KDELR1 (Uniprot: P24390) and KDELR2 (Uniprot: P33947) were cloned into the pEF5/FRT low level mammalian expression vector with a C-terminal 20 amino acid linker made up of 5 copies of Gly-Ser-Ser-Ser followed by GFP. Specific point mutations were introduced using the Quickchange protocol (Stratagene) and are described in the key resources table and figures. To create the mScarlet-KDEL^sec ligand construct, mScarlet with an N-terminal hGH signal peptide and the 16 C-terminal residues of human BiP at its C-terminus, containing the KDEL signal, was cloned into the pcDNA3.1 vector. […] The Golgi marker protein TGN46 was detected by antibody (sheep anti-TGN46 AHP500G; AbD Serotec) and an Alexa 647 conjugated secondary anti-sheep secondary (A-21448, Invitrogen). In Figure 1d and e, endogenous KDELR was detected by antibody (mouse anti-KDELR ADI-VAA-PT048; Enzo Life Sciences) and Alexa 488 conjugated anti-mouse secondary antibody (A-21202, Invitrogen). For retrieval assays in other figures, KDELR-GFP fusion proteins were directly detected by fluorescence. The mScarlet-xDEL fusion proteins were directly detected by fluorescence. […] The fraction of KDEL receptor in the Golgi apparatus was calculated by dividing the Golgi signal by the total cell signal. […]

T1 sequence (P24390 whole entry D50N/N54K/E117Q/W120A): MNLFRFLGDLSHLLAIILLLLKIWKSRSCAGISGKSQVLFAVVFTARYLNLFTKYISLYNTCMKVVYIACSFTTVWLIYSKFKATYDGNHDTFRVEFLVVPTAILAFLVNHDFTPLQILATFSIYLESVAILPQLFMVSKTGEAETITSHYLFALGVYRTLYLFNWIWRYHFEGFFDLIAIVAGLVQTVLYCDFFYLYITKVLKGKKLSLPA

With “ADEL [pcDNA3.1 hGHss-mScarlet-H. sapiens BiP639-654K651A (ADEL^SEC), secreted mScarlet fusion with human BiP C-terminus, ADEL signal]” the “ligand-induced receptor retrieval to the ER (in words)” value was “does not relocate from the Golgi to the ER”.
